Tests used:
Format in all cases: cell-based
RAW 264.7 macrophages = assay: RAW 264.7 macrophage viability test (MTT); conditions: compounds at 50 μM; for viability at 50 µM: Mus musculus, RAW264.7, 24 h, read-out: Cell Survival Rate (%) RAW 264.7 Macrophages
Experimental: The MTT colorimetric method was used to detect the effect of compounds 1–10 on the viability of RAW 264.7 macrophages. The RAW 264. 7 macrophages in the logarithmic growth phase were digested with trypsin to prepare a single-cell suspension, which was seeded in a 96-well plate at a density of 1 × 10^4 cells per well and cultured in a 5% CO2 incubator for 24 h at 37 °C, before discarding the supernatant. The blank control group was cultured with 10% FBS-containing DMEM, and the drug group was treated with aqueous solutions of compounds 1–10, with six replicate wells for each concentration. Incubation was continued in 5% CO2 at 37 °C. After 24 h of incubation, 10 μL of 5 mg/mL MTT was added to each well. The culture solution was removed after culturing for 4 h. Then, 100 μL of DMSO was added to each well, before shaking for 10 min to achieve complete dissolution. The optical density (OD) was measured at 492 nm using a microplate reader to calculate cell viability.

[1] = test system: nitric oxide (NO) production in lipopolysaccharide (LPS)-stimulated RAW 264.7 cells; assay: Anti-inflammation assay: inhibition of NO production in LPS-stimulated RAW 264.7 macrophages; conditions: means ± SD of triplicate experiments
Experimental: The anti-inflammatory activity of the isolated compounds was evaluated in lipopolysaccharide-stimulated RAW 264.7 macrophages using the […]. The RAW 264.7 macrophages were seeded in 96-well plates at a density of 1 × 10^4 cells per well for 24 h, followed by treatment with different extracts of identical purity for another 24 h. The compounds were dissolved in dimethyl sulfoxide (DMSO) and diluted appropriately just before cell treatments. Cells were incubated with the extract at indicated concentrations, with DMSO not exceeding 0.1% in all experiments. The cells were cultured in DMEM with 10% FBS and antibiotics (100 U/mL penicillin and 100 µg/mL streptomycin) at 37 °C with 5% CO2. […].

[2] = Cytotoxicity test against HCT-8 cells (MTT); conditions: human, means ± SD (n = 3), read-out: IC50 (μM) HCT-8 (cytotoxic activity)
Experimental: (§1) The cytotoxic activities of compounds 1–10 against HCT-8 cells were tested using the MTT colorimetric method. HCT-8 cells were cultivated on DMEM medium at 37 °C and 5% CO2. After diluting the DMEM medium, cells were seeded into 96-well sterile microplates (6 × 10^4 cells/well) and cultured with a series of various concentrations of tested compounds or adriamycin (positive control) for 24 h at 37 °C. After incubation, all compounds were tested at five concentrations (10−100 μM) for 1 h. Following this, the supernatant was removed, and all components were dissolved in 100% DMSO, at such an amount that there was a final DMSO concentration of 0.1% added to each well. The absorbance was measured using a microplate reader at a wavelength of 570 nm. […] The cell growth assay was repeated three times, and the IC50 values were calculated using Microsoft Excel software.

HCT-8 cells = assay: Cytotoxicity test against HCT-8 cells (MTT); conditions: 24 h, means ± SD (n = 3), read-out: IC50 (μM) HCT-8 (cytotoxic activity)
Experimental: as §1

[3] = Mus musculus, RAW264.7, 24 h treatment

IC50 [1, 3] [µM] | Compound | viability at 50 µM (RAW 264.7 macrophages) [%] | IC50 at 24 h [2] [µM] | Cell Survival Rate (%) RAW 264.7 Macrophages (RAW 264.7 macrophages; 24 h) [%] | IC50 ([1]; 24 h treatment) [µM] | IC50 (HCT-8 cells) [µM]
38.2 ± 1.15 | CC(=O)O[C@H]1CCC(C)(C)[C@@H]2CCc3cc(C(C)C)ccc3[C@@]12CO [Compound 1, nepetabrate A] | 97.93 ± 0.26 | > 50 |  |  | 
37.1 ± 0.81 | CC(C)c1ccc2c(c1)[C@@H](O)C[C@H]1[C@@](C)(C(=O)O)CCC[C@]21C [Compound 7, 7a-hydroxycallitrisic acid] | 98.75 ± 0.45 | > 50 |  |  | 
19.2 ± 1.25 | CC(C)c1ccc2c(c1)[C@@H](O)C[C@H]1[C@@](C)(C=O)CCC[C@]21C [Compound 2, nepetabrate B] | 88.26 ± 0.32 | 36.3 ± 1.1 |  |  | 
36.2 ± 1.21 | CC(C)(O)c1ccc2c(c1)CC[C@H]1[C@@](C)(C(=O)O)CCC[C@]21C [Compound 6, angustanoic acid F] | 99.89 ± 0.13 | > 50 |  |  | 
46.3 ± 1.02 | CC(C)c1ccc2c(c1)CC[C@@H]1[C@](C)(CCC[C@]1(C)C(=O)O)O2 [Compound 10, jiadifenoic acid K] | 98.75 ± 0.2 | > 50 |  |  | 
42.3 ± 0.56 | CC(=O)c1ccc2c(c1)CC[C@H]1[C@@](C)(C(=O)O)CCC[C@]21C [Compound 9, angustanoic acid G] | 98.26 ± 0.18 | > 50 |  |  | 

Continued, compound first:

Compound | IC50 [1, 3] [µM] | viability at 50 µM (RAW 264.7 macrophages) [%] | IC50 at 24 h [2] [µM] | Cell Survival Rate (%) RAW 264.7 Macrophages (RAW 264.7 macrophages; 24 h) [%] | IC50 ([1]; 24 h treatment) [µM] | IC50 (HCT-8 cells) [µM]
CC1CC(=O)OCCNC1=O (centres unmarked) [Compound 5, 6-methyl-1,4-oxazocane-5,8-dione] | 18 ± 1.13 | 99.21 ± 0.15 | > 50 |  |  | 
COc1cccc2c1C(=O)c1c(O)c3c(c(O)c1C2=O)C[C@@](O)(C(=O)CO)C[C@@H]3O[C@H]1C[C@H](N)[C@H](O)[C@H](C)O1 [Adriamycin, reference compound] |  |  | 1.78 ± 0.14 |  |  | 
C=C1[C@@H]2C[C@H](O)c3cc(C(C)C)ccc3[C@@]2(C)CC[C@@]1(C)O [Compound 4, nepetabrate D] | 18.8 ± 0.75 | 92.21 ± 0.19 | 41.4 ± 0.91 |  |  | 
1-phenanthrenecarboxylic acid [Compound 8] |  |  |  | 99.12 ± 0.28 | 37.5 ± 0.92 | > 50
CC(=O)Oc1ccccc1C(=O)O [Aspirin, reference compound] | 15.9 ± 0.38 |  |  |  |  | 
CC1=C(CO)[C@@H]2C[C@H](O)c3cc(C(C)C)ccc3[C@@]2(C)CC1 [Compound 3, nepetabrate C] | 22.3 ± 1.26 | 99.84 ± 0.21 | > 50 |  |  | 
